{
  "source": "patent US20180370918A1",
  "about": "“SORAFENIB HEMI-P-TOSYLATE MONOHYDRATE CRYSTAL AND PREPARATION PROCESS THEREOF” (CHIA TAI TIANQING PHARMACEUTICAL GROUP CO., LTD., priority 2015, published 2018)",
  "key": {"[1]": {"experiment": "Stability test (Chinese Pharmacopoeia 2010, Guideline for Stability Test of Bulk Drug), purity by HPLC", "type": "physicochemical", "experimental": "Chromatographic column: Agilent peptide map chromatographic column (3.0×150 mm, 2.7 μm)\nMobile phase A: phosphate buffer solution (monopotassium phosphate (0.79 g) was weighted and dissolved in water, then diluted to 1000 ml, and further adjusted to pH=2.4 with phosphoric acid)\nMobile phase B: ethanol-acetonitrile (40:60)\nDetection wavelength: 235 nm for detection\nColumn temperature: 55° C.\nSolvent: mobile phase A-mobile phase B (1:3)\nPreparation of a solution of a test sample: an appropriate amount of the test sample was weighted and dissolved in the solvent [mobile phase A-mobile phase B (1:3)], then diluted to a solution which comprises about 0.16 mg of sorafenib per 1 ml as the solution of the test sample.\nThe stability test for the sorafenib hemi-p-tosylate monohydrate crystal of the present invention was conducted according to the Chinese Pharmacopoeia (2010), Part 11, Appendix XIX C: Guideline for Stability Test of Bulk Drug and Pharmaceutical Preparation."}, "[2]": {"experiment": "Hygroscopicity test (Chinese Pharmacopoeia 2010, Guideline for Hygroscopicity Test of Drug)", "type": "physicochemical", "experimental": "The hygroscopicity test for the sorafenib hemi-p-tosylate monohydrate crystal of the present invention was conducted according to the Chinese Pharmacopoeia (2010), Part II, Appendix XIX J: Guideline for Hygroscopicity Test of Drug."}},
  "data": [
    {"smiles": "CNC(=O)c1cc(Oc2ccc(NC(=O)Nc3ccc(Cl)c(C(F)(F)F)c3)cc2)ccn1", "note": "[sorafenib hemi-p-tosylate monohydrate]", "values": [
      {"measurement": "Purity", "setting": "[1]; Day 0", "result": 99.96, "unit": "%"},
      {"measurement": "Purity", "setting": "[1]; Exposure test to light (luminance: 6000 Lux), standing for 10 days", "result": 99.97, "unit": "%"},
      {"measurement": "Purity", "setting": "[1]; Shading test (luminance: 6000 Lux), standing for 10 days", "result": 99.96, "unit": "%"},
      {"measurement": "Purity", "setting": "[1]; Standing for 6 months at 25° C. ± 2° C. and humidity of 60% ± 5%", "result": 99.96, "unit": "%"},
      {"measurement": "Purity", "setting": "[1]; Standing for 10 days at 25° C. and humidity of 92.5% ± 5%", "result": 99.96, "unit": "%"},
      {"measurement": "Purity", "setting": "[1]; Standing for 10 days at 40° C.", "result": 99.96, "unit": "%"},
      {"measurement": "Purity", "setting": "[1]; Standing for 10 days at 60° C.", "result": 99.95, "unit": "%"},
      {"measurement": "Stability (conclusion in words)", "setting": "[1]; results of Table 4", "result": "highly stable"},
      {"measurement": "Hygroscopic weight grain (%)", "setting": "[2]", "result": 0.07, "unit": "%"}
    ]}
  ]
}
